Experimental data reported in patent US8205612B2, “Dry powder aerosol generator” (The University of North Carolina at Chapel Hill, NC, priority 2007, dated 2012).

Conditions: in vivo, iv, 20 mg/kg
Procedure: Where F is the absolute bioavailability, AUCLUNG and DLUNG are the area under the curve and dose, respectively, for drug administration through the lung. AUCIV and DIV are areas under the curve and dose, respectively, of drug administered intravenously. From internal PK Studies performed, it is known that F equals 0.54 for capreomycin particles administered through the lungs, AUCIV equals 48.47 μgh/ml, and DIV equals 20 mg/kg.

AUCIV: 48.47 μgh/ml
Substance: capreomycin
